Details of data set [1]: species or system mice. As to conditions: mouse, in vivo. The protocol:
FIG. 11. […] Mice were gavaged with roughly molar equivalent levels of either xylitol alone (500 mg/kg in water) or erythritol alone (400 mg/kg), or both compounds (500 mg/kg xylitol and 400 mg/kg erythritol). Time-dependent changes in levels of xylitol and erythritol were quantified using LC-MS/MS in plasma (Panel A), urine (Panel B), and feces (Panel C) for the three groups of mice. At baseline, both xylitol and erythritol are present in mouse plasma at low levels (0.5-1.0 μM). […] Reported is content of xylitol and erythritol per ug of wet feces.
Stable-isotope-dilution LC-MS/MS was developed to specifically quantify xylitol in human and mouse plasma, urine and feces (fecal pellets were dissolved in water and supernatant subjected to LC-MS/MS). Ice cold methanol (800 μL) and internal standard (^13C2-arabitol) were added to the plasma samples (20 μL) or urine (20 μL) previously diluted in MQ water, followed by vortexing and centrifuging (21,000×g; 4° C. for 15 min). The clear supernatant (800 μL) was transferred into a clean, labeled glass tubes (Borosilicate glass 12×75 mm) and dried in a speed vacuum concentrator (Speed vac plus, SC210, Thermo Sevant). Acetylation was used since xylitol is poorly ionizable in order to achieve better retention on the reverse phase column and separation from other structural isomers as well as better ionization to achieve better sensitivity. The dry residue was reconstituted in acetic anhydride (100 μL) and 4-Dimethylaminopyridine (DMAP) in pyridine (100 μl; 1 mg/mL), sealed with safety caps, vortexed and heated (45 min at 80° C.) followed with drying under nitrogen. Dried residues were dissolved in HCl in water (0.1 M; 0.5 mL) and extracted with ethylacetate (2.0 mL). Ethylacetate layer was transferred into a clean glass tube (Borosilicate glass 12×75 mm) and dried under nitrogen. The dry residue was reconstituted in ammonium formate in a mixture of methanol:water (100 μL; 50:50 v/v with 10 mM ammonium formate), tubes were vortexed and liquid was transferred to glass vials with micro-insets and caped. LC-MS/MS analysis was performed on a chromatographic system consisting of two Shimadzu LC-30 AD pumps (Nexcra X2), a CTO 20AC oven operating at 30° C., and a SIL-30 AC-MP autosampler in tandem with a triple quadruple mass spectrometer (8050 series, Shimadzu Scientific Instruments, Inc., Columbia, MD, USA). For chromatographic separation, a Kinetex C18 column (50 mm×2.1 mm; 2.6 μm) (Cat #00B-4462-AN, Phenomenex, Torrance, CA) was used. […] Accuracy and precision of the method to quantify xylitol (separated from its structural isomers arabitol and ribitol) were assessed by a standard addition method of pure synthetic standard into different plasma pools. The accuracy of xylitol measurement was determined by the method of standard additions^12 using three different plasma pools, and was 2.4-2.8%. Intra- and inter-day coefficients of variation (CVs), measured by multiple analysis of three different control samples, were 1.2-8.9% and 10.9-11.5%, respectively. Freeze/thaw stability was determined over the five cycles and it was less than 7% for xylitol. The limit of quantification (LOQ) was defined (by convention) as the level at which xylitol was measured within the matrix (plasma) with a peak having signal-to-noise-ratio of 10:1. Limit of detection (LOD) was determined to be the lowest concentration of xylitol in the sample with a signal-to-noise ratio ≥3. […]

For data set [2] the following is noted: cited from earlier work.
A further data set deals with washed human platelets. Description: Platelet flow cytometry assay (P-selectin, PAC-1). In kind it is cell-based. As to conditions: for ADP-stimulated P-selectin surface expression / ADP-stimulated glycoprotein α2β3 (GP IIb/IIIa) activation: pre-incubation with the polyol, ADP 2 μM. Here is the method: Antibody staining of washed platelets for flow cytometry was performed as described previously^41 with further information outlined in additional methods. […]
Washed platelets and antibody staining for flow cytometry was performed as described previously using sodium citrate (0.109 M) as anti-coagulant^51. Washed platelets were separated by centrifugation at 500×g for 10 min and re-suspended in modified Hank's buffered salt solution without PGE1. Final platelet suspensions (100 μL; 2×10^8 platelets/mL) were then pre-incubated with erythritol, glucose or 1,5-AHG (at indicated concentrations) for 30 min at 22° C. Platelets were then stimulated with 2 μM ADP for 10 min and incubated with PE conjugated anti-P-selectin (CD62P-PE, Catalogue #555524, BD PharMingen, San Diego, CA, USA; 2.5 μL/100 μL) or Fluorescein isothiocyanate (FITC) conjugated PAC1 (binds only to active conformation of GP IIb/IIIa, Catalogue #3 40507, BD PharMingen, San Diego, CA, USA; 5 μL/100 μL) or isotype control antibody (PE IgG isotype control, Catalogue #555749 or FITC IgM Isotype control, Catalogue #555583, BD PharMingen, San Diego, CA, USA) in the dark for 20 min. The platelet suspensions were then fixed with 100 μL of 2% paraformaldehyde. Data was acquired on a flow cytometer (FACS LSR Fortessa, BD Biosciences, Franklin Lakes, New Jersey, USA). Twenty thousand (20,000) events were collected. The data was analyzed with FACSDiva Software (v.9.0) (BD Biosciences). Platelets were gated to exclude doublets (FIG. 28) and the raw mean fluorescent intensity (MFI) of either P-selectin (CD62P) or PAC-1 was quantified.
On the technique in general: Flow cytometry measures light scatter and fluorescence of single cells or particles in a stream.

The structures appear in SMILES notation.

The values below come from US20260219274A1, “POLYOL SWEETNERS AND CARDIOVASCULAR AND THROMBOTIC EVENT RISK” (THE CLEVELAND CLINIC FOUNDATION, priority 2023, published 2026).

In data set [1], `OC[C@@H](O)[C@@H](O)CO` [erythritol] gave a baseline plasma level of 0.5 to 1.0 µM. For the same compound, the “oral absorption in mice” value in data set [1] (po) was “rapidly absorbed”. The “well tolerated daily dose” value in data set [2] (digestive tolerance) was “up to 1 g/kg”. In addition, in data set [2] (in vivo), the “effect on blood sugar / insulin” value is “no short-term insulinemic or glycemic effects”; the “metabolism and excretion upon ingestion” value was “poorly metabolized and mostly excreted in the urine”. For the same compound, in the data set on washed human platelets, the “ADP-stimulated P-selectin surface expression” value is on record as “dose-dependent enhancement” and the “ADP-stimulated glycoprotein α2β3 (GP IIb/IIIa) activation” value is “dose-dependent enhancement”. In addition, in the data set on washed human platelets (threshold, FIG. 17), the “erythritol concentration eliciting significant stimulus-dependent enhancement in P-selectin surface expression” value was 18 µM and the “erythritol concentration eliciting significant stimulus-dependent enhancement in activated GP IIbIIIa surface expression” value worked out at 4.5 µM.

On to `OC[C@@H](O)[C@H](O)[C@@H](O)CO` [xylitol], for which, in data set [1], the baseline plasma level lay within 0.5 to 1.0 µM, the “postprandial increase in urine” value is given as “Significant xylitol increases also were not observed” and the recovery in feces result is listed as “the majority of xylitol is recovered in feces”. Further, the “effect on blood sugar / insulin” value in data set [2] (in vivo) was “negligible impact”. In the data set on washed human platelets, the “ADP-stimulated P-selectin surface expression” value is “dose-dependent enhancement” and the “ADP-stimulated glycoprotein α2β3 (GP IIb/IIIa) activation” value is reported as “dose-dependent enhancement”.
